Source: US8178506B2, “Oligomeric compounds and compositions for use in modulation of small non-coding RNAs” (Regulus Therapeutics Inc., priority 2003, dated 2012)
e = 2'-O-(2-methoxyethyl) (MOE); d = 2'-deoxy (DNA)

System: mir-15a pri-miRNA
Assay: mir-15a pri-miRNA expression in T47D cells (real-time RT-PCR)
Assay type: cell-based, human
Conditions: real-time RT-PCR
In short: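 T47D cells transfected with 100 nM uniform 2′-MOE or gapmer oligomers. Pri-miRNA measured by real-time RT-PCR with a mir-15a-specific primer/probe set, normalized to 5.8S rRNA, expressed as percentage of untreated control RNA levels.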

**Q.** Which “mir-15a pri-miRNA expression % UTC” value does the source give for “129690 (antisense TTAGAATACGTCGCGTTATG; sugars from the 5' end e5 d10 e5, all phosphorothioate, methylation of C not given here) [compound 129690]” here?
**A.** 121 % UTC
